Data set [1] concerns Human activated PBMC. As to the kind of experiment: Disc diffusion assay in semisolid media (agarose 0.5% / collagen 0.3% hydrogels), 6 well plates, resazurin read-out. The format is cell-based. Particulars: different disc loads, FIG. 12. The protocol: PBMC T-Cells were activated though incubation with Dynabeads Human T-activator CD3/CD28 agonistic antibodies (Thermo Fisher, cat #111.32D) using a ratio 1:2 (dynabeads:PBMC) in a cell culture bottle. PBMC in the absent of dynabeads were also cultured as negative control of stimulation.
Paper discs of 6 mm diameter discs were used as immunosuppressant delivery units. Discs were obtained from manual drill of Whatman™, 3 mm CHR chromatography paper sheet or using ready to use commercial paper disc (DDbiolab). Discs were sterilized by autoclave. Immunosupressant drugs (Sigma Aldrich) was dissolved in pure ethanol (Sigma Aldrich) at 20 mg/ml and stored as stock solution at −20° C. till use. […]
Resazurin (blue) transition to resofurin (pink) was monitored with the naked eye or checked after overnight incubation depending on assay design. […] Results were collected through images acquisition with visible light (Sanyo camera S1070 and E1075), ultraviolet light (UVltec Geldoc Gel Light Imaging System) and fluorescence microplate multyreader (PHERAstar® FSX Multimode Microplate Reader from BMG LABTECH or Spark® 10M Tecan.). Inhibitory gradients halos or fronts induced by discs loaded with immunosuppressants were quantified with ImageJ software in a semi-automated process or Spark control v1.2.25 software. […]
(In agar diffusion tests the substance spreads into inoculated agar from a disc or well.)

Data set [2] relates to stimulated human PBMCs. Kind of data set: Liquid media serial dilution assay in standard 96 well microplate, resazurin read-out. The data set is classed as cell-based. The protocol: Human PBMC were extracted for Buffy coat bags from blood bank volunteer donation using density gradient centrifugation in adequate hydrophilic isosmotic polysaccharide solutions with a density of 1.077 g/ml (Pancoll, PAN BIOTECH GmbH or Ficoll, GE Healthcare) at 760 G during 20 minutes at RT. Cells were extracted with pipette from the gradient interphase and then washed in HBSS w/o Ca, Mg and Phenol red (Lonza), and resuspended in X-VIVO 15 (Lonza) medium. Obtained cells were frozen in cryovials with serum free medium (Profreeze-CDM, Lonza) DMSO (Sigma Aldrich) 7.5% and storage until use in liquid nitrogen.
A few days later, removed vials from liquid nitrogen were immediately thawed in a 37° C. water bath for 2 minutes. […] After supernatant discard, cells were re-suspended in X-VIVO medium for further count and viability quantification.
After thawing PBMCs viability was quantified by trypan blue and Neubauer chamber. […]
After 10-12 hours of incubation with presto blue, 100 ul of each well were transferred to a 96 well ELISA plate, and then absorbance at 570 and 620 nm wavelength was quantified in a robotic absorbance microplate reader (Tekan, Infinite F50). Final values were obtained as result of absorbance at 570 nm minus absorbance at 620 nm, following instructions from presto blue manufacturer (Thermo Fisher). […]
In general terms: The colour change of resazurin is a common sign of viable cells or microbes.

For data set [3], the system named is renal transplanted patient PBMCs. Kind of data set: Immunobiogram: disc diffusion gradient in collagen-methylcellulose hydrogel in 12 channelled well plates, clinical study. The format is cell-based, human. The following applies: patient 211; compared with tacrolimus and prednisone curves; FIG. 31. The protocol: A multicenter study was conducted with a cohort of 70 renal transplant recipient patients, also 10 healthy volunteers were included for comparison purposes. The inclusion criteria consisted in men and women aged over 18 years with kidney transplant performed at least 1 year prior to inclusion. Patients present different defined and registered immunological risk profiled when included. Transplant patient clinical history includes complete recording of previous and updated immunological relevant data at the inclusion time.
Sample collection for the immunobiogram implementation consisted in two sodium heparin Vacutainer® tubes. Human PBMCs extraction from blood sample was performed using density gradient centrifugation (760 G during 15-20 minutes at RT) in adequate hydrophilic isosmotic polysaccharide solutions with a density of 1.077 g/ml (Pancoll, PAN BIOTECH GmbH or Ficoll, GE Healthcare). Cells were extracted with pipette from the gradient interphase and then washed in HBSS w/o Ca, Mg and Phenol red (Lonza), and resuspended in X-VIVO 15 (Lonza) medium. Obtained cells were frozen in cryovials with serum free medium (Profreeze-CDM, Lonza) DMSO (Sigma Aldrich) 7.5% and storage in liquid nitrogen until use. […] After the supernatant was discarded, cells were re-suspended in X-VIVO medium for further count and viability quantification. […]

The conditions of data set [4]: general solubility profile, no test described; cited from earlier work.

As to `CO[C@H]1C[C@@H]2CC[C@@H](C)[C@@](O)(O2)C(=O)C(=O)N2CCCC[C@H]2C(=O)O[C@H]([C@H](C)C[C@@H]2CC[C@@H](OCCO)[C@H](OC)C2)CC(=O)[C@H](C)/C=C(\C)[C@@H](O)[C@@H](OC)C(=O)[C@H](C)C[C@H](C)/C=C/C=C/C=C/1C` [Everolimus], the “inhibitory halos over activated human PBMC” value in data set [1] is “Dose dependant inhibitory halos”. Besides, the “recovery of PBMC proliferative capacity versus positive control” value in data set [2] (96 standard wells microplate serial dilutions, all concentration tested, even femtomolar, FIGS. 14 and 15) is “did not recover proliferative capacity comparable with positive control level”. In addition, in data set [2] (standard wells, all the concentrations tested (even at femtomolar levels)), the “inhibitory effect over stimulated human PBMCs” value is “at least some inhibitory level effect”.

With `COc1c(C)c2c(c(O)c1C/C=C(\C)CCC(=O)OCCN1CCOCC1)C(=O)OC2` [MMF, micofenolate], in data set [3], the Immunobiogram response curve entry is “less responsive”.

Turning to `COc1c(C)c2c(c(O)c1C/C=C(\C)CCC(=O)O)C(=O)OC2` [Mycophenolic acid, Mycophenolic Acid], the “inhibitory halos over activated human PBMC” value in data set [1] was “Dose dependant inhibitory halos”. The aqueous solubility result in data set [4] was “good aqueous solubility”.

Source of the values: US11175282B2, “Method for predicting and monitoring clinical response to immunomodulatory therapy” (BIOHOPE Scientific Solutions for Human Health S.L., priority 2017, dated 2021).
